Measurements reported in paper PMC6271933, “Evaluation of the Toxicity of 5-Aryl-2-Aminoimidazole-Based Biofilm Inhibitors against Eukaryotic Cell Lines, Bone Cells and the Nematode Caenorhabditis elegans” (Molecules, 2014).
pIC50: −log10 of the molar value. “And” between values parts separate entries of the source, which are not always exact repeats. Equal entries are not always repeated. “Also recorded” adds a separate entry of the source.

Legend:
[1] = test system: HMO2, HepG2, HeLa and mouse lymphoma cells; parameters: method as in PMID 12193030, PMID 15165143, PMID 17822294; settings: including HMO2, HepG2, HeLa and mouse lymphoma cells; cited from earlier work
[2] = test system: HaCaT keratinocyte cells; parameters: method as in PMID 22292413; settings: cited from earlier work
[3] = test system: Caenorhabditis elegans; parameters: method as in PMID 22292413; settings: cited from earlier work
[4] = test system: P. aeruginosa biofilm; settings: concentration preventing biofilm formation (at 25 °C) by 50%; as previously reported ref 13, 14, 15, 16; read-out: BIC50 P. aeruginosa; cited from earlier work
[5] = test system: human bone marrow-derived mesenchymal stem cells (MSC); experiment: Metabolic activity of bone cells, MTT staining; assay type: cell-based; settings: 12.5 µM, 6 days exposure, MTT staining (results not shown)
Description: (§1) The cytotoxicity of the compounds was measured on cell cultures of two cell types represented in bone tissue, namely human osteoblasts (OB) and human bone marrow-derived mesenchymal stem cells (MSC). These tests were conducted according to ISO 10993-5 cytotoxicity standard. The cells were seeded in a 96-well plate at a density of 5000 cells/cm^2 in cell culture media (Advanced DMEM, 10% FBS, 1× GlutaMAX, 0.05 mg/mL gentamicin) and allowed to attach overnight. The next day the test compounds (12.5 μM) and controls were added to the cells (negative controls were cell culture medium and cell culture medium with 0.5% DMSO background, positive control was 0.05% phenol to show a cytotoxic effect) and incubated for 2h, 48h and 6 days and at each time-point the numbers of viable and dead cells were determined by trypan blue staining, and the metabolic activity was determined with MTT staining.
(§2) MTT: the medium was removed from the wells and 100 μL of medium, supplemented with 10% serum and 0.5 mg/mL MTT was added to the cells. The cells were incubated overnight at 37 °C and 5% CO2. The next day the medium with MTT was removed and 100 μL acidic isopropanol was added. The cells were then centrifuged at 2300 g and 50 μL of the supernatant was transferred to a new 96-well plate. The absorbance was measured at 570 nm and the background was measured at 660 nm. Four wells per condition were examined.

[6] = test system: human osteoblasts (OB); experiment: Metabolic activity of bone cells, MTT staining; assay type: cell-based; settings: 12.5 µM, 6 days exposure, MTT staining (results not shown)
Description: as §1, §2

[7] = test system: S. Typhimurium biofilm; settings: concentration preventing biofilm formation (at 25 °C) by 50%; as previously reported ref 13, 14, 15, 16; read-out: BIC50 S. Typhimurium; cited from earlier work
[8] = test system: C. elegans; assay type: in vivo, Caenorhabditis elegans; settings: for C. elegans % survival at 25 µM: after 7 days relative to viability at day 0, mean of at least two repeats
Description: Eggs of a double mutant (glp-4Dsek-1D) of C. elegans were grown on NGM/OP50 agar plates (NGM agar plates on the surface inoculated with 100 µL of an overnight culture of OP50 Escherichia coli and stored at 4 °C until use) at 25 °C until all nematodes had reached the L4 stage. Worms were collected and washed with M9 buffer (3 g/L KH2PO4, 6 g/L Na2HPO4, 5 g/L NaCl, 1 mM MgSO4). For toxicity testing, 40 to 50 worms were suspended in 250 μL M9 (supplemented with 10 µg/mL cholesterol, 75 µg/mL ampicillin and 100 µg/mL kanamycin) buffer in each well of 24-well microtiter plates, in the presence or absence (0.5% DMSO control) of 25, 100 or 200 µM of the test compounds and grown for 7 days at 25 °C. The percentage survival of the worms in the presence or absence of anti-biofilm compounds was calculated after 7 days relative to their viability at day 0.

[9] = test system: human bone marrow-derived mesenchymal stem cells (MSC); experiment: Cytotoxicity against bone cells, trypan blue staining; assay type: cell-based; settings: for effect on proliferation and viability: after 48h and after 6 days of exposure
Description: (§3) The cytotoxicity of the compounds was measured on cell cultures of two cell types represented in bone tissue, namely human osteoblasts (OB) and human bone marrow-derived mesenchymal stem cells (MSC). These tests were conducted according to ISO 10993-5 cytotoxicity standard. The cells were seeded in a 96-well plate at a density of 5000 cells/cm^2 in cell culture media (Advanced DMEM, 10% FBS, 1× GlutaMAX, 0.05 mg/mL gentamicin) and allowed to attach overnight. […]
(§4) Trypan blue staining: the medium was removed from the wells, and 1/3 trypan blue in DMEM medium was added to the cells, incubated for 3 min, after which trypan blue was removed and DMEM medium was added to the wells. In each of four wells, two microscopy fields were counted for viable (transparent) and dead (blue) cells.

[10] = test system: human osteoblasts (OB); experiment: as above; assay type: cell-based; settings: for effect on proliferation and viability: after 48h and after 6 days of exposure
Description: as §3, §4

[11] = test system: human cervix carcinoma (HeLa); experiment: Cytostatic activity against tumor cell lines (cell number by Coulter counter); assay type: cell-based; settings: 96 h, concentration inhibiting cell proliferation by 50%, four days incubation, mean of three repeats
Description: (§5) The IC50 was defined as the compound concentration required to inhibit cell proliferation by 50%. The therapeutic index (TI) was calculated as the ratio of the compound concentration producing toxicity (IC50) to the concentration needed to exert the desired ‘therapeutic’ effect on biofilms of Salmonella and Pseudomonas, indicated by the BIC50 (dose needed to prevent biofilm formation by 50%). The higher the therapeutic index, the broader the safety window of the compound.
(§6) Murine leukemia (L1210), human T-lymphocyte (CEM) and human cervix carcinoma (HeLa) were suspended at 300,000–500,000 cells/mL of culture medium, and 100 µL of a cell suspension was added to 100 µL of an appropriate dilution of the test compounds in 200 µL-wells of 96-well microtiter plates. After incubation at 37 °C for two (L1210), three (CEM) or four (HeLa) days, the cell number was determined using a Coulter counter. The IC50 was defined as the compound concentration required to inhibit cell proliferation by 50%.

[12] = test system: murine leukemia (L1210); experiment: as above; assay type: cell-based; settings: Mus musculus, L1210, 48 h; concentration inhibiting cell proliferation by 50%; two days incubation; mean of three repeats
Description: as §5, §6

[13] = test system: human T-lymphocyte (CEM); experiment: as above; assay type: cell-based; settings: 72 h, concentration inhibiting cell proliferation by 50%, three days incubation, mean of three repeats
Description: as §5, §6

[14] = test system: osteoblasts (OB); experiment: Calcium assay for osteogenic differentiation potential; assay type: cell-based, human; settings: 12.5 µM, 3 weeks (Figure 6) or 5 weeks (methods) of exposure
Description: (§7) MSC and OB were cultured in osteogenic medium for 3 and 5 weeks, respectively. The experimental groups included a positive solvent control (osteogenic medium with 0.5% DMSO background), a negative control (medium without osteogenic supplements) and treated samples (osteogenic medium, 0.5% DMSO background and 12.5 µM of test compound). Cell cultures were extracted by 5% trichloroacetic acid (500 μL per sample). O-Cresolphtalein complex was added (Calcium CPC LiquiColor Test®; Stanbio Laboratory, Boerne, TX, USA), and the calcium content was determined spectrophotometrically at 550 nm.
(§8) To determine the DNA content, cells were washed with PBS, and 200 μL of digestion buffer (10 mM Tris, 1 mM EDTA, 0.1% Triton X-100, 0.1 mg/mL proteinase K) was added. Samples were incubated in digestion buffer overnight at 56 °C. The supernatants were drawn off and PicoGreen® dye (Molecular Probes, Eugene, OR, USA) was added to the samples in 1:1 ratio and read in a fluorescent plate reader (excitation 485 nm and emission 528 nm). DNA values were used to normalize the calcium content. Four wells per condition were examined, and two samples from each well were taken for each assay.

[15] = test system: mesenchymal stem cells (MSC); experiment: as above; assay type: cell-based, human; settings: 12.5 µM, 5 weeks (Figure 6) or 3 weeks (methods) of exposure
Description: as §7, §8

[16] = 12.5 µM, 48h exposure, trypan blue

SMILES: COc1ccc(Cc2nc(N)n(C)c2Cc2cc(O)c(OC)c(OC)c2)cc1 [2e, naamine C]
- cytotoxicity to a variety of cell lines [1]: cytotoxic

SMILES: COc1ccc(Cc2nc(N)n(C)c2Cc2cc(O)c(OC)c(O)c2)cc1 [2f, naamine E]
- cytotoxicity to a variety of cell lines [1]: cytotoxic

SMILES: COc1ccc(Cc2nc(N)n(C)c2Cc2ccc(O)c(OC)c2)cc1 [2g, naamine F]
- cytotoxicity to a variety of cell lines [1]: cytotoxic

SMILES: COc1ccc(Cc2[nH]c(=N)n(C)c2Cc2cc(OC)c(O)c(OC)c2)cc1 [2h, naamine G]
- cytotoxicity to a variety of cell lines [1]: cytotoxic

SMILES: COc1ccc(Cn2cc(Cc3ccc(OC)c(OC)c3)nc2/N=C2/NC(=O)N(C)C2=O)cc1 [2i, isonaamidine E]
- cytotoxicity to a variety of cell lines [1]: cytotoxic

SMILES: COc1ccc(Cc2[nH]/c(=N\C3=NC(=O)N(C)C3=O)n(C)c2Cc2cc(OC)c(O)c(OC)c2)cc1 [2k, naamidine H]
- cytotoxicity to a variety of cell lines [1]: cytotoxic

SMILES: C/N=C1N=C(/N=c2\[nH]c(Cc3ccc(OC)cc3)c(Cc3cc(OC)c(O)c(OC)c3)n2C)C(=O)N\1C [2l, naamidine I]
- cytotoxicity to a variety of cell lines [1]: cytotoxic

SMILES: Cn1c(C(=O)NCCCc2c[nH]c(N)n2)cc(Br)c1Br [2p]
- effect on HaCaT keratinocyte cells [2]: differential effect
- toxicity against Caenorhabditis elegans [3]: lack toxicity

SMILES: CCCCCCCCCCCCCNC(=O)CCCc1c[nH]c(N)n1 [2q]
- effect on HaCaT keratinocyte cells [2]: differential effect
- toxicity against Caenorhabditis elegans [3]: lack toxicity

SMILES: CCCCCCCCn1c(-c2ccc(Cl)cc2)cnc1N [compound 7]
- pIC50 [4]: 5.40
- reduction of metabolic activity as compared to the untreated controls [5]: > 80%
- reduction of metabolic activity as compared to the untreated controls [6]: > 80%
- pIC50 [7]: 5.23
- C. elegans % survival at 25 µM [8]: 86.6%
- effect on C. elegans survival at 100 µM ([8]; 7 days of exposure): none of the compounds significantly affect
- inhibition of C. elegans survival at 200 µM ([8]; 200 µM, 7 days of exposure): more than 50%
- reduction of proliferation as compared to the solvent control [9, 16]: > 70%
- reduction of viability as compared to the solvent control [9, 16]: > 70%
- reduction of proliferation as compared to the solvent control [10, 16]: > 70%
- reduction of viability as compared to the solvent control [10, 16]: > 70%
- pIC50 [11]: 5.35
- pIC50 [12]: 5.41
- pIC50 [13]: 3.45

SMILES: CC(C)CNc1ncc(-c2ccc(Cl)cc2)[nH]1 [compound 22]
- pIC50 [4]: 6.05
- calcium deposition compared to the solvent control (osteogenic differentiation potential) [14]: none of the compounds does negatively affect; also recorded: significantly (p < 0.05) induces
- calcium deposition compared to the solvent control (osteogenic differentiation potential) [15]: none of the compounds does negatively affect; also recorded: significantly (p < 0.05) induces
- effect on metabolic activity [5]: slightly enhance
- effect on metabolic activity [6]: slightly enhance
- pIC50 [7]: 5.70
- C. elegans % survival at 25 µM [8]: 97.6%
- effect on C. elegans survival at 100 µM ([8]; 7 days of exposure): none of the compounds significantly affect
- effect on C. elegans survival at 200 µM ([8]; 200 µM, 7 days of exposure): do not significantly affect survival
- effect on proliferation and viability ([9]; 12.5 µM, trypan blue): do not or only slightly reduce
- survival of cells after 4 weeks of exposure [9]: allow survival
- effect on proliferation and viability ([10]; 12.5 µM, trypan blue): do not or only slightly reduce
- survival of cells after 4 weeks of exposure [10]: allow survival
- pIC50 [11]: 3.77
- pIC50 [12]: 3.47
- pIC50 [13]: 3.53

SMILES: CCCCNc1ncc(-c2ccc(Br)cc2)[nH]1 [compound 25]
- pIC50 [4]: 5.01
- calcium deposition compared to the solvent control (osteogenic differentiation potential) [14]: none of the compounds does negatively affect
- calcium deposition compared to the solvent control (osteogenic differentiation potential) [15]: none of the compounds does negatively affect; also recorded: significantly induces
- effect on metabolic activity [5]: slightly enhance
- effect on metabolic activity [6]: slightly enhance
- pIC50 [7]: 5.15
- C. elegans % survival at 25 µM [8]: 102.4%
- effect on C. elegans survival at 100 µM ([8]; 7 days of exposure): none of the compounds significantly affect
- effect on C. elegans survival at 200 µM ([8]; 200 µM, 7 days of exposure): do not significantly affect survival
- effect on proliferation and viability ([9]; 12.5 µM, trypan blue): do not or only slightly reduce
- survival of cells after 4 weeks of exposure [9]: allow survival
- effect on proliferation and viability ([10]; 12.5 µM, trypan blue): do not or only slightly reduce
- survival of cells after 4 weeks of exposure [10]: allow survival
- pIC50 [11]: 4.29
- pIC50 [12]: 3.90
- pIC50 [13]: 3.31

SMILES: Brc1ccc(-c2cnc(NCCCn3cc(C4CC4)nn3)[nH]2)cc1 [compound 40]
- pIC50 [4]: 4.14 and 4.15
- calcium deposition compared to the solvent control (osteogenic differentiation potential) [14]: none of the compounds does negatively affect
- calcium deposition compared to the solvent control (osteogenic differentiation potential) [15]: none of the compounds does negatively affect
- effect on metabolic activity [5]: slightly enhance
- effect on metabolic activity [6]: slightly enhance
- pIC50 [7]: 5.70
- C. elegans % survival at 25 µM [8]: 82.6%
- effect on C. elegans survival at 100 µM ([8]; 7 days of exposure): none of the compounds significantly affect
- effect on C. elegans survival at 200 µM ([8]; 200 µM, 7 days of exposure): do not significantly affect survival
- effect on proliferation and viability ([9]; 12.5 µM, trypan blue): do not or only slightly reduce
- survival of cells after 4 weeks of exposure [9]: allow survival
- effect on proliferation and viability ([10]; 12.5 µM, trypan blue): do not or only slightly reduce
- survival of cells after 4 weeks of exposure [10]: allow survival
- pIC50 [11]: 4.17
- pIC50 [12]: 4.36
- pIC50 [13]: 4.47
